In assay [1] the target is GLK (Homo sapiens (Human), UniProt Q8IVH8). The experiment in a line: GLK kinase assay (1 mM ATP system), ADP-Glo. The format is biochemical. Put shortly: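 GLK kinase reaction with 1 mM ATP and MBP substrate ran 60 min at 25 °C after 15 min preincubation of enzyme with compound. ADP formed was detected by ADP-Glo luminescence; percent inhibition used to derive IC50.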

Assay [2] deals with human peripheral blood mononuclear cells. The assay is described as follows: Detection of IFN-γ secretion in human peripheral blood mononuclear cells (anti-CD3/CD28 beads, ELISA). The class given is cell-based. The following applies: for Maximum induction factor: IFN-γ secretion, human PBMC; for EC3x: concentration for IFN-γ secretion of human PBMC to reach 3 times the baseline, 3 days. As for the experimental part:
Pharmacological Experiment 4: Detection of IFN-γ Secretion in Human Peripheral Blood Monocytes
• (1) Take human peripheral blood mononuclear cells frozen in liquid nitrogen, thaw in a 37° C. water bath, add 5 mL of preheated RPMI-1640 complete medium (containing 10% fetal bovine serum and penicillin/streptomycin), centrifuge at 500 g for 10 minutes, and discard the supernatant; • (2) Resuspend the cells in RPMI-1640 complete medium, adjust the density to 5×10^6 cells/mL, inoculate in a low-adhesion 6-well plate (Corning, 3471), and culture at 37° C. for 2 days; • (3) Collect cultured human peripheral blood mononuclear cells, centrifuge at 500 g for 10 min, and discard the supernatant; • (4) Resuspend the cells in RPMI-1640 complete medium, adjust the density to 1×10^6 cells/mL, and inoculate them in a round-bottom 96-well plate (Jet Biofil, TCP-002-096), with 100 μL per well; • (5) Add 50 μL of the test compound to each well and incubate at 37° C. for 30 min; • (6) Take human anti-CD3/CD28 magnetic beads (Miltenyi, 130-091-441), wash once with RPMI-1640 complete medium, and adjust the density to 0.5×106 beads/mL for later use; • (7) After the compound incubation, 50 μL of anti-human CD3/CD28 magnetic beads were added to each well and cultured at 37° C. for 3 days, • (8) The cell culture supernatant was obtained and the IFN-γ secretion was detected using the Human IFN-gamma DuoSet ELISA kit (R&D, DY285B-05); • (9) The log value of concentration was used as the X-axis and the IFN-γ secretion amount was used as the Y-axis. The “log (agonist) vs. response−variable slope” equation of the analysis software GraphPad Prism 7 was used to fit the dose-effect curve, thereby obtaining the EC3x value and the maximum induction factor of the compound for the secretion of IFN-γ from human peripheral blood mononuclear cells to reach 3 times the baseline.

For assay [3], the target named is HPK1 (Homo sapiens (Human), UniProt Q92918). The assay is described as follows: HPK1 enzyme activity detection (1 mM ATP system), ADP-Glo with MBP substrate, Pharmacological Experiment 2. The class given is biochemical. The method in brief:
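Compound in DMSO preincubated with HPK1 for 15 min at 25 °C, then reaction started with ATP (1 mM system) and MBP substrate for 60 min at 25 °C. ADP formed quantified by ADP-Glo luminescence; IC50 derived from percentage inhibition.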
On the technique in general: In ADP-Glo the light output rises with the ADP produced.

The values that follow come from patent US20250361241A1, “HPK1 INHIBITOR AND MEDICAL USE THEREOF” (Betta Pharmaceuticals Co., Ltd., priority 2022, published 2025).

Several values for one entry are separate records, joined by “and”; a condition that tells them apart may be missing. Identical values can stand only once.

Broadly, the IC50 is the midpoint of a concentration-inhibition curve.

Chain of GLK (Q8IVH8 whole entry, species assumed): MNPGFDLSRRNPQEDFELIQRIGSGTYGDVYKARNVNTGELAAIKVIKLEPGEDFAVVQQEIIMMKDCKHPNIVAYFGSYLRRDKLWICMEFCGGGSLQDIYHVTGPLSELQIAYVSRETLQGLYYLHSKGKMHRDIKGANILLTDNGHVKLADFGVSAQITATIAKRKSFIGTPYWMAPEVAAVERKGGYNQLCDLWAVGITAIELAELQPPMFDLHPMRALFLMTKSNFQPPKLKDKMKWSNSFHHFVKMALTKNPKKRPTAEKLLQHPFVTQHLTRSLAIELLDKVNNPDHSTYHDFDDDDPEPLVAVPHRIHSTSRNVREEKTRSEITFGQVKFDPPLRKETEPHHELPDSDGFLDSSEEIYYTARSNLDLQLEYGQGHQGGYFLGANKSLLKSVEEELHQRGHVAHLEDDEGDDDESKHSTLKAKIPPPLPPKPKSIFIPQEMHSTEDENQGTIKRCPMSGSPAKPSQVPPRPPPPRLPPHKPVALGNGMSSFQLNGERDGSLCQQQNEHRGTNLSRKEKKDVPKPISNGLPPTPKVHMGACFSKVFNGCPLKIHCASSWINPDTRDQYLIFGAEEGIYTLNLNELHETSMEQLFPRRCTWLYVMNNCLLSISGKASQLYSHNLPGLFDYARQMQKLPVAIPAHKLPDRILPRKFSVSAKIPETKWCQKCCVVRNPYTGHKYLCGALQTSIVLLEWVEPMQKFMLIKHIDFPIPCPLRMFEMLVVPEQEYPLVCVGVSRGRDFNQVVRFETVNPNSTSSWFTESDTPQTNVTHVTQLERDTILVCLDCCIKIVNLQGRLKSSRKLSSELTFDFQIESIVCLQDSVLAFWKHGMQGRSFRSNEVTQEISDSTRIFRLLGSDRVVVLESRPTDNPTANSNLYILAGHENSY
Chain of HPK1 (Q92918 whole entry, species assumed): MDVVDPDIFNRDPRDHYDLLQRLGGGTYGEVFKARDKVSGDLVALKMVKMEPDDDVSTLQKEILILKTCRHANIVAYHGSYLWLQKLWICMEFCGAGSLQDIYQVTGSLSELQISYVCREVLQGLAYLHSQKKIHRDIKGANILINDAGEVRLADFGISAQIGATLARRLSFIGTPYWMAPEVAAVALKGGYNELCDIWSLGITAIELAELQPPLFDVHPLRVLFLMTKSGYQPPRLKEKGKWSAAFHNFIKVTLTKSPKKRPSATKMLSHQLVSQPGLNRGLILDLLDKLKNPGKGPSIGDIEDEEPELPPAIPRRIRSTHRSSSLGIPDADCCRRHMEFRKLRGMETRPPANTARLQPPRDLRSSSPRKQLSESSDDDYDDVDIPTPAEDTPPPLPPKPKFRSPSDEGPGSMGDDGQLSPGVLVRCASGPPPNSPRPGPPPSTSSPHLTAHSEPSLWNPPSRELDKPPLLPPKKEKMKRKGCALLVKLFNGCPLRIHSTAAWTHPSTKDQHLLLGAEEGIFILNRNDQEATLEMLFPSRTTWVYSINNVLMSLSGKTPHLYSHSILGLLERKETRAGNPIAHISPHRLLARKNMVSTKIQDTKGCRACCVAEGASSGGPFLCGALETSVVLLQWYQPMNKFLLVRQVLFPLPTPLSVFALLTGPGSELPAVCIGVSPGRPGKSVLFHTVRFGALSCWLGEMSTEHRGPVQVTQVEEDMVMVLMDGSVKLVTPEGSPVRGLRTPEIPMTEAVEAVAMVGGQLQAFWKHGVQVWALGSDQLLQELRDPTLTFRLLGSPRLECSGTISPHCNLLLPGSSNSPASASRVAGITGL

The compound “4-(7-FLUOROIMIDAZO[1,2-A]PYRIDIN-3-YL)-7-((2,3,5,6,7′,8′-HEXAHYDRO-6′H-SPIRO[PYRAN-4,5′-[1,7]NAPHTHYRIDINE]-2′-YL)AMINO)ISOINDOL-1-ONE [Compound 87]” returned an IC50 in assay [1] of 724 nM. In assay [2], the Maximum induction factor came to 11.2 and the “EC3x” value stood at 193 nM. For the same compound, half-maximal inhibition in assay [3] (IC50) was put at 5.12 nM.
Regarding “4-(7-FLUOROIMIDAZO[1,2-A]PYRIDIN-3-YL)-7-((7′-METHYL-2,3,5,6,7′,8′-HEXAHYDRO-6′-SPIRO[PYRAN-4,5′-[1,7]NAPHTHYRIDINE]-2′-YL)AMINO)ISOINDOL-1-ONE [Compound 50]”, the half-maximal inhibitory concentration (IC50) amounted to 1230 nM in assay [1] and 3.39 nM in assay [3]. Further, the Maximum induction factor in assay [2] amounted to 4.8. Further, in assay [2], the “EC3x” value is on record as 181 nM.
`CN(C)C1COC2(CCOCC2)c2ccc(Nc3ccc(-c4cnc5cc(F)ccn45)c4c3C(=O)NC4)nc21` (stereo not shown) [Compound 49, 7-((8′-(DIMETHYLAMINO)-2,3,5,6,7′,8′-HEXAHYDROSPIRO[PYRAN-4,5′-PYRAN[4,3-B]PYRIDINE]-2′-YL)AMINO)-4-(7-FLUOROIMIDAZOLE[1,2-A]PYRIDIN-3-YL)ISOINDOL-1-ONE] had an IC50 in assay [1] of 338 nM. In assay [2], the Maximum induction factor is 10.7 and 5.7; the “EC3x” value was 152 nM and 294 nM. In addition, the IC50 in assay [3] was 4.44 nM.
Take `CN(C)C1CC2(CCOC2)c2ccc(Nc3ccc(-c4cnc5cc(F)ccn45)c4c3C(=O)NC4)nc21` (stereo not shown) [Compound 58, 7-((7-(DIMETHYLAMINO)-4′,5′,6,7-TETRAHYDRO-2′H-SPIRO[CYCLOPENTANE[B]PYRIDINE-5,3′-FURAN]-2-YL)AMINO)-4-(7-FLUOROIMIDAZO[1,2-A]PYRIDIN-3-YL)ISOINDOL-1-ONE]: the midpoint of inhibition in assay [1], the IC50, lay at 1480 nM. Also, in assay [2], the Maximum induction factor came out at 6.5 and the “EC3x” value amounted to 352 nM. In assay [3], the IC50 is 5.25 nM.
The corresponding values for `O=C1NCc2c(-c3cnc4cc(F)ccn34)ccc(Nc3ccc4c(n3)C(NC3CC3)CC43CCOCC3)c21` (stereo not shown) [Compound 62, 7-((7-(CYCLOPROPYLAMINO)-2′,3′,5′,6,6′,7-HEXAHYDROSPIRO[CYCLOPENTYL[B]PYRIDINE-5,4′-PYRAN]-2-YL)AMINO)-4-(7-FLUOROIMIDAZOLE[1,2-A]PYRIDIN-3-YL)ISOINDOL-1-ONE] are more than 30000 nM, 4.9, 241 nM and 10.2 nM.
The corresponding values for `O=C1NCc2c(-c3cnc4cc(F)ccn34)ccc(Nc3ccc4c(n3)C(N3CC[C@@H](F)C3)CC43CCOCC3)c21` (stereo partly drawn) [Compound 71, 4-(7-FLUOROIMIDAZOLO[1,2-A]PYRIDIN-3-YL)-7-((7-((R)-3-FLUOROPYRROLIDIN-1-YL)-2′,3′,5′,6,6′,7-HEXA HYDROSPIRO[CYCLOPENTYL[B]PYRIDIN-5,4′-PYRAN]-2-YL)AMINO)ISOINDOL-1-ONE] are 293 nM, 16.6, 76 nM and 3.27 nM.
With `O=C1NCc2c(-c3cnc4cc(F)ccn34)ccc(Nc3ccc4c(n3)C(N3CC[C@H](F)C3)CC43CCOCC3)c21` (stereo partly shown) [Compound 75], in assay [1], the IC50 stood at 273 nM. In addition, in assay [2], the Maximum induction factor was 8.3 and 10.5; the “EC3x” value is 64 nM and 119 nM. Moreover, the IC50 in assay [3] is 2.78 nM.
`O=C1NCc2c(-c3cnc4cc(Cl)ccn34)ccc(Nc3ccc4c(n3)C(N3CCCC3)CC43CCOCC3)c21` (stereo not shown) [Compound 103] came in with an IC50 in assay [1] of 291 nM. Further, in assay [2], the Maximum induction factor turned out to be 5.3 and the “EC3x” value was 123 nM. The compound also came in with an IC50 in assay [3] of 4.67 nM.
In the case of `O=C1NCc2c(-c3cnc4cc(F)ccn34)ccc(Nc3ccc4c(n3)C(NCC(F)F)CC43CCOCC3)c21` (stereo not shown) [Compound 105], in assay [2], the Maximum induction factor is 14.1 and the “EC3x” value was 58 nM. Besides, in assay [3], the IC50 came out at 5.26 nM.
Consider `O=C1NCc2c(-c3cnc4cc(F)ccn34)ccc(Nc3ccc4c(n3)C(NC3CCOC3)CC43CCOCC3)c21` (stereo not shown) [Compound 107], for which, in assay [1], the IC50 came to 1200 nM. For the same compound, in assay [2], the Maximum induction factor is 8.8 and the “EC3x” value stood at 296 nM. In assay [3], this compound came in with an IC50 of 3.55 nM.
Regarding `O=C1NCc2c(-c3cnc4cc(F)ccn34)ccc(Nc3ccc4c(n3)C(N3C5CCC3COC5)CC43CCOCC3)c21` (stereo not shown) [Compound 115], in assay [2], the Maximum induction factor turned out to be 9.6 and the “EC3x” value was found to be 225 nM. The same compound had an IC50 in assay [3] of 7.15 nM.
Regarding `Cc1ccn2c(-c3ccc(Nc4ccc5c(n4)CCCC54CCOCC4)c4c3CNC4=O)cnc2c1` [Compound 121], the IC50 in assay [1] is 679 nM; in assay [3] it was 3.35 nM. The compound also gave a Maximum induction factor in assay [2] of 19.4. Moreover, in assay [2], the “EC3x” value is on record as 140 nM.
The corresponding values for `O=C1NCc2c(-c3cnc4cc(Cl)ccn34)ccc(Nc3ccc4c(n3)CCCC43CCOCC3)c21` [Compound 122] are 455 nM, 3.21 nM, 16.2 and 56 nM.
The corresponding values for `O=C1NCc2c(-c3cnc4cc(OC(F)F)ccn34)ccc(Nc3ccc4c(n3)CNCC43CCOCC3)c21` [Compound 123] are 896 nM, 12.1 nM, 26.8 and 214 nM.
With `N#Cc1ccn2c(-c3ccc(Nc4ccc5c(n4)C(N4CCCC4)CC54CCOCC4)c4c3CNC4=O)cnc2c1` (stereo not shown) [Compound 168, 3-(1-OXO-7-((7-(PYRROLIDIN-1-YL)-2′,3′,5′,6,6′,7-HEXAHYDROSPIRO[CYCLOPENTA[B]PYRIDINE-5,4′-PYRAN]-2-YL)AMINO)ISOINDOL-4-YL)IMIDAZO[1,2-A]PYRIDINE-7-CARBONITRILE], the 50% inhibitory concentration (IC50) in assay [1] worked out at 289 nM; in assay [3] it was 5.27 nM.
The corresponding values for `O=C1NCc2c(-c3cnc4cc(OC(F)F)ccn34)ccc(Nc3ccc4c(n3)C(N3CCCC3)CC43CCOCC3)c21` (stereo not shown) [Compound 169, 4-(7-(DIFLUOROMETHOXY)IMIDAZO[1,2-A]PYRIDIN-3-YL)-7-((7-(PYRROLIDIN-1-YL)-2′,3′,5′,6,6′,7-HEXAHYDROSPIRO[CYCLOPENTA[B]PYRIDINE-5,4′-PYRAN]-2-YL)AMINO)ISOINDOL-1-ONE] are 223 nM and 9.19 nM.
In the same order, the values of `CN(C)C1CC2(CCOC2)c2ccc(Nc3ccc(-c4cnc5cc(OC(F)F)ccn45)c4c3C(=O)NC4)nc21` (stereo not shown) [Compound 172, 4-(7-(DIFLUOROMETHOXY)IMIDAZO[1,2-A]PYRIDIN-3-YL)-7-((7-(METHYLAMINO)-4′,5′,6,7-TETRAHYDRO-2′-H-PYRIDO[CYCLOPENTYL[B]PYRIDINE-5,3′-FURAN]-2-YL)AMINO)ISOINDOLIN-1-ONE] are 1120 nM and 13.8 nM.
In the same order, the values of `CN(C)C1COC2(CCC2)c2ccc(Nc3ccc(-c4cnc5cc(F)ccn45)c4c3C(=O)NC4)nc21` (stereo not shown) [Compound 173] are 3200 nM and 8.47 nM.
With `CN(C)C1CC2(CCOCC2)c2ccc(Nc3ccc(-c4cnc5cc(N)ccn45)c4c3C(=O)NC4)nc21` (stereo not shown) [Compound 174, 4-(7-AMINOIMIDAZO[1,2-A]PYRIDIN-3-YL)-7-((7-(DIMETHYLAMINO)-2′,3′,5′,6,6′,7-HEXAHYDROSPIRO[CY CLOPENTADIENYL[B]PYRIDINE-54′-PYRAN]-2-YL)AMINO)ISOINDOL-1-ONE], the IC50 came out at 566 nM in assay [1] and 19.2 nM in assay [3].
In the same order, the values of `O=C1NCc2c(-c3cnc4cc(OC(F)F)ccn34)ccc(Nc3ccc4c(n3)C(NC3CC3)CC43CCOCC3)c21` (stereo not shown) [Compound 178, 7-((7-(CYCLOPROPYLAMINO)-2′,3′,5′,6,6′,7-HEXAHYDROSPIRO[CYCLOPENTADIENYL[B]PYRIDINE-54′-PYRAN]-2-YL)AMINO)-4-(7-(DIFLUOROMETHOXY)IMIDAZO[1,2-A]PYRIDIN-3-YL)ISOINDOLIN-1-ONE] are 1240 nM and 13.7 nM.
As to `CC(C)NC1CC2(CCOCC2)c2ccc(Nc3ccc(-c4cnc5cc(OC(F)F)ccn45)c4c3C(=O)NC4)nc21` (stereo not shown) [Compound 179], the values for the IC50 in assay [1] and in assay [3] were 970 nM and 8.85 nM, respectively.
In the same order, the values of `COc1ccn2c(-c3ccc(Nc4ccc5c(n4)C(N(C)C)CC54CCOC4)c4c3CNC4=O)cnc2c1` (stereo not shown) [Compound 180, 7-((7-(DIMETHYLAMINO)-4′,5′,6,7-TETRAHYDRO-2′H-SPIRO[CYCLOPENTADIENYL[B]PYRIDINE-5,3′-FURAN]-2-YL)AMINO)-4-(7-METHOXYIMIDAZO[1,2-A]PYRIDIN-3-YL)ISOINDOLIN-1-ONE] are 3910 nM and 13.9 nM.
